Test results taken from US6531148B1, “Therapeutic agents” (Takara Shuzo Co., Ltd., priority 1998, dated 2003).

Assays:
HL-60 cells = experiment: Apoptosis induction test; format: cell-based
Experimental: (1) HL-60 cells were cultured at 37° C. in RPMI 1640 medium (Bio Whittaker) containing 10% of fetal bovine serum (JRH), which had been treated at 56° C. for 30 minutes, and suspended in RPMI 1640 medium at a concentration of 2.5×10^5 cells/4.5 ml.
500 μl of at 125 μM, 250 μM, 500 μM, 1 mM, 2 mM or 4 mM aqueous DGE solution was added to 4.5 ml of the suspension. The mixtures were incubated at 37° C. for 24 hours in the presence of 5% CO2.
The cultured cells were examined under an optical microscope.
Measurement of apoptotic cells using FACScan as described in Saibo Kogaku, Bessatsu (Cell Technology, Suppl.) Jikken Protocol Series: Apoptosis Jikken Protocol (Experimental Protocol Series: Experimental Protocols for Apoptosis) (Shujun-sha) pp. 129-130 and analysis of DNA fragmentation as described in Bio Manual UP Series: Saishin Apoptosis Jikken-ho (Bio Manual UP Series: Current Experimental Methods for Apoptosis) (Yodo-sha) pp. 61-63 were carried out using cells cultured for 24 or 48 hours in the same manner as that described above.
(2) A portion of the cells cultured for 24 hours as described in Example 2-(1) was stained with 0.4% Trypan Blue and examined under an optical microscope. The number of viable cells which were not stained and the number of dead cells which were stained blue were counted. The concentration of DGE that results in a viability of 50% [Viability50 (μM)] was determined to be 81.7 μM.

[1] = tested on: Mouse melanoma cell B16BL6; experiment: Melanogenesis inhibition test; format: cell-based; conditions: B16BL6, absorbance at 400 nm
Experimental: Mouse melanoma cell B16BL6 suspended in RPMI 1640 medium containing 10% fetal bovine serum was dispensed into a 6-well plate at 5×10^4 cells/well/2 ml medium and the plate was incubated at 37° C. On the 2nd day, 100 μl of a DGE solution (2 mg/ml to 0.2 mg/ml) was added thereto. On the 7th day, the medium was exchanged and, at the same time, 100 μl of the DGE solution (2 mg/ml to 0.2 mg/ml) was added thereto. On the 8th day, the cells were harvested. After DNA, RNA and protein were digested, the absorbance at 400 nm was measured to determine an activity of inhibiting melanogenesis.
Briefly, after removing the medium by aspiration, 0.3 ml of 0.25% trypsin dissolved in 20 mM EDTA solution was added to each well and the plate was incubated at 37° C. for 10 minutes. 2 ml of fresh medium was then added to the well and the cells were suspended. The suspension was transferred to a tube. After the medium was removed by centrifugation, the cells were suspended in 2 ml of PBS and centrifuged again. After the supernatant was removed, 30 μl of 50 mM sodium acetate buffer (pH 5.0) containing 5 mM manganese chloride and 1 μl of 70,000 U/ml DNase I (Takara Shuzo) were added to the cells. The mixture was mixed thoroughly and then incubated at 37° C. for 2 hours to digest DNA. 1 μl of 10 mg/ml ribonuclease A (Sigma) was then added to the mixture and the resultant mixture was incubated at 50° C. for 1 hour to digest RNA. Finally, 100 mM Tris-hydrochloride buffer (pH 7.8) containing 100 μg/ml proteinase K (Sigma), 0.1% Triton X and 10 mM EDTA was added thereto to make the total volume to 200 μl for 2×10^6 cells. After the mixture was incubated at 37° C. for 16 hours, the absorbance at 400 nm was measured.

[2] = tested on: prostaglandin E2 production induced by LPS in RAW264.7 cells; experiment: Prostaglandin E2 production inhibition test; format: cell-based
Experimental: RAW264.7 cells were suspended in Dulbecco's modified Eagle's medium containing 10% fetal bovine serum at a concentration of 3×10^5 cells/ml. 500 μl of the suspension was added to each well of a 48-well microtiter plate and the plate was incubated at 37° C. for 6 hours in the presence of 5% CO2. 10 μl of an aqueous solution prepared by dissolving DGE at a concentration of 0.5 mM in water and sterilizing it by filtration was added to the well. The plate was incubated for additional 0.5 or 5 hours. 10 μl of 50 μg/ml aqueous LPS solution was then added to the well. After the plate was incubated for additional 12 hours, the amount of prostaglandin E2 was measured. As control groups, a group to which LPS was not added and a group to which DGE was not added were provided.
After cultivation, the amount of prostaglandin E2 in the culture supernatant was measured using Prostaglandin E2 ELISA Kit (Neogen, Code. 404110). All of the measurements were carried out in triplicate.
RAW264.7 cells were suspended in Dulbecco's modified Eagle's medium without phenol red containing 10% fetal bovine serum and 2 mM L-glutamine at a concentration of 3×10^5 cells/ml. 500 μl of the suspension was added to each well of a 48-well microtiter plate and the plate was incubated at 37° C. for 12 hours in the presence of 5% CO2. 10 μl of 50 μg/ml aqueous lipoplysaccharide solution and 10 μl of an aqueous solution prepared by dissolving DGE-GSH prepared in Example 13-(1) at a concentration of 1 mM in water and sterilizing it by filtration were then added to the well. After the plate was incubated for additional 16 hours, the amount of prostaglandin E2 was measured. As control groups, a group to which LPS was not added and a group to which DGE-GSH was not added were provided.
After cultivation, the amount of prostaglandin E2 in the culture supernatant was measured using Prostaglandin E2 ELISA Kit (Neogen, Code. 404110).

[3] = tested on: lipid peroxide radical production; experiment: Lipid peroxide radical production inhibition test; format: cell-based, Staphylococcus aureus 3A; conditions: for Growth of bacteria: 37° C., 30 minutes
human TGF-β = experiment: Cytokine production from DSEK cells (ELISA); format: cell-based; conditions: DSEK culture supernatant at 24 or 72 hours
Experimental: (§1) 150 μl/well of culture supernatant was recovered from the DSEK cell culture at 24 or 72 hours. The effects of DGE on the production (expression) of cytokines (human TGF-β, human FGF-β, human IL-1α and human IL-10) from the cell were determined using ELISA kits specific for the respective cytokines (from Intergen for human FGF-β and human IL-10; and from Promega for human IL-1α and human TGF-β).

human FGF-β = experiment: Cytokine production from DSEK cells (ELISA); format: cell-based; conditions: DSEK culture supernatant at 24 or 72 hours
Experimental: as §1

human IL-1α = experiment: Cytokine production from DSEK cells (ELISA); format: cell-based; conditions: DSEK culture supernatant at 24 or 72 hours
Experimental: as §1

human IL-10 = experiment: Cytokine production from DSEK cells (ELISA); format: cell-based; conditions: DSEK culture supernatant at 24 or 72 hours
Experimental: as §1

Compound | antiproliferation activity against tumor cells due to the apoptosis-inducing activity (HL-60 cells) | activity of inhibiting melanogenesis [1] | prostaglandin E2 concentration in the medium ([2]; LPS, 10 μl of 1 mM DGE-GSH per 500 μl well, 16 hours, control 63.4 ng/ml, no addition 50.3 ng/ml) [ng/mL] | activity of inhibiting lipid peroxide radical production [3] | Growth of bacteria ([3]; DGE 1 mM in the reaction mixture with tert-butyl hydroperoxide) | Growth of bacteria ([3]; DGE 10 mN in the reaction mixture with tert-butyl hydroperoxide) | inhibition of prostaglandin E2 production, 5 hours pre-incubation with DGE compared with 0.5 hour ([2]; DGE added before LPS) | inhibition of prostaglandin E2 production induced by LPS ([2]; ELISA) | DNA fragmentation (HL-60 cells; 24 or 48 hours, DGE at 50 or 100 μM) | final concentration at which apoptotic cells were observed (HL-60 cells; 24 or 48 hours, FACScan) [µM] | final concentration at which condensation of nuclei, shrinking of cells and formation of apoptotic bodies were observed (HL-60 cells; 24 hours, optical microscope) [µM] | IC50 (HL-60 cells; Homo sapiens, 24 hours, Trypan Blue, read-out: Viability50, concentration that results in a viability of 50%) [µM] | production of human TGF-β (human TGF-β) | production of human FGF-β (human FGF-β) | production of human IL-1α (human IL-1α) | production of human IL-10 (human IL-10)
O=C1C=CC(CO)OC1O [κ-DGE, D-glycero-1,5-epoxy-1αβ,6-dihydroxy-cis-hex-3-en-2-one] | exhibited a similar activity | also exhibited similar activities |  |  |  |  |  |  |  |  |  |  |  |  |  | 
5-L-glutathion-S-yl-2-hydroxy-3,7-dioxabicyclo[2.2.2]octan-1-ol [DGE-GSH] |  | also exhibited similar activities | 50.7 |  |  |  |  |  |  |  |  |  |  |  |  | 
O=C1C=CC(CO)OC1O [DGE, L-glycero-1,5-epoxy-1αβ,6-dihydroxy-cis-hex-3-en-2-one] | exhibited an antiproliferation activity against tumor cells | an activity of inhibiting melanogenesis was observed |  | exhibited an activity of inhibiting lipid peroxide radical production | − | + | stronger inhibition of prostaglandin E2 production | inhibited the prostaglandin E2 production induced by LPS | DNA fragmentation was observed | ≥ 50 | ≥ 50 | 81.7 | enhancing the production | inhibiting the production | inhibiting the production | enhancing the production
